In one experiment the target is T1, THR-α (Homo sapiens, UniProt P10827).
T1 sequence (P10827 1-410 isoform P10827-2): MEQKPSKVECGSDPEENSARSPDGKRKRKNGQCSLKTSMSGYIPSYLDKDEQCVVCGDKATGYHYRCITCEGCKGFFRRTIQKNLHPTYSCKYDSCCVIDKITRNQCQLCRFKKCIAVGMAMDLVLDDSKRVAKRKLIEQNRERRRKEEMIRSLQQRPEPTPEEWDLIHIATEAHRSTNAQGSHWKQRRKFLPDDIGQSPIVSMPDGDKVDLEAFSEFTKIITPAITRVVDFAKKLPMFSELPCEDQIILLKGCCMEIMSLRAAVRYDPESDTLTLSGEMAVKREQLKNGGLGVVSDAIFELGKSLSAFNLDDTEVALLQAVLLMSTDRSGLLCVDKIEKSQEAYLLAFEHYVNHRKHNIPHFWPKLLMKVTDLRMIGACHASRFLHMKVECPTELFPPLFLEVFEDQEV
Kind of experiment: in vitro agonist activity at the molecular level (AlphaScreen detection), THR-α. The experiment is classed as biochemical. The note with it: in vitro molecular evaluation system; for Emax: read-out: THR-α Rel % Activity of T3. In general terms: In Alpha technology, singlet oxygen from a donor bead excites a nearby acceptor bead.

For another experiment, the target named is T2, THR-β (Homo sapiens, UniProt P10828).
T2 construct: GST; made in house
T2 sequence (P10828 1-461): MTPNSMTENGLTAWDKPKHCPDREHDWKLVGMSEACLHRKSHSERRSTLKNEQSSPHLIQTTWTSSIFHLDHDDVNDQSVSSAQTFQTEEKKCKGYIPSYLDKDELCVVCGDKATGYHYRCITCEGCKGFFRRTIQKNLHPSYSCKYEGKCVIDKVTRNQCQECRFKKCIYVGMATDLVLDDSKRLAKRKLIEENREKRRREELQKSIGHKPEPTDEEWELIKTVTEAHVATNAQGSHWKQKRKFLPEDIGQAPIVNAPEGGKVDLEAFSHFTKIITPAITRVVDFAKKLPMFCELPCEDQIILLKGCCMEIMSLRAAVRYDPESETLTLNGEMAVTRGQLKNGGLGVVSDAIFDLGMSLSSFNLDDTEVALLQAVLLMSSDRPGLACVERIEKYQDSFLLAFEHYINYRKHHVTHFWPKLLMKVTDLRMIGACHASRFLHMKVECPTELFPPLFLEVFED
Description: in vitro THR β agonist activity at the molecular level (AlphaScreen detection). The format is biochemical. The conditions noted are these: in vitro molecular evaluation system; for Selectivity: THR-β versus THR-α; for Emax: read-out: THR-β Rel % Activity of T3. The procedure:
At the molecular level, the binding ability of the compound to thyroid hormone receptor β (THR β) was measured by AlphaScreen detection. Firstly, recombinant GST-THR β fusion proteins were constructed, followed by compound-receptor binding reactions in 384-well plates.

pEC50: −log10 of the molar value.

What is called pEC50 is −log10 of the EC50, conventionally taken in molar units. A low value points to a large EC50.

Take `Cc1cc(-c2ccco2)nc2ccc(Oc3c(Cl)cc(-n4nc(C#N)c(=O)[nH]c4=O)cc3Cl)cc12` [Compound 15, 2-(3,5-Dichloro-4-((2-(furan-2-yl)-4-methylquinolin-6-yl)oxy)phenyl) -3,5-dioxo-2,3,4,5-tetrahydro-1,2,4-triazine-6-carbonitrile]: at THR-α, the pEC50 was 6.55 and the Emax turned out to be 62.5%. On THR-β, the negative logarithm of the EC50 (pEC50) was 7.14, the Selectivity is recorded as 3.9 and the Emax worked out at 84.3%.
For the compound `Cc1cc(-c2ccoc2)nc2ccc(Oc3c(Cl)cc(-n4nc(C#N)c(=O)[nH]c4=O)cc3Cl)cc12` [Compound 17], on THR-α, the pEC50 is 5.91 and the Emax was determined as 57.6%. On THR-β, the pEC50 is 6.53, the Selectivity is 4.2 and the Emax worked out at 73.7%.
Consider `Cc1cc(-c2cccs2)nc2ccc(Oc3c(Cl)cc(-n4nc(C#N)c(=O)[nH]c4=O)cc3Cl)cc12` [Compound 19, 2-(3,5-Dichloro-4-((2-(thiophen-2-yl) -4-methylquinolin-6-yl)oxy)phenyl) -3,5-dioxo-2,3,4,5-tetrahydro-1,2,4-triazine-6-carbonitrile], for which the results for the negative-log EC50 (pEC50) at THR-α and on THR-β were less than 4.30 and 6.42, respectively. Further, the Emax on THR-β came out at 71.8%.
For the compound `Cc1cc(-c2ccc(F)cc2)nc2ccc(Oc3c(Cl)cc(-n4nc(N)c(=O)[nH]c4=O)cc3Cl)cc12` [Compound 60, 6-amino-2-(3,5-dichloro-4-((2-(4-fluorophenyl)-4-methylquinolin-6-yl)oxy)phenyl)-1,2,4-triazine-3,5(2H,4H)-dione], at THR-α, the pEC50 was 7.24 and the Emax was determined as 62.7%. Also, on THR-β, the pEC50 is 8.08, the Selectivity came to 6.89 and the Emax was determined as 83%.
Turning to `Nc1nn(-c2cc(Cl)c(Oc3ccc4nccc(Cl)c4c3)c(Cl)c2)c(=O)[nH]c1=O` [Compound 99, 6-amino-2-(3,5-dichloro-4((4-chloroquinolin-6-yl)oxy)phenyl)-1,2,4-triazine-3,5(2H,4H)-dione], at THR-α, the negative logarithm of the EC50 (pEC50) was 6.61 and the Emax was 67.5%. For the same compound, on THR-β, the negative logarithm of the EC50 (pEC50) is 7.50, the Selectivity is 7.85 and the Emax was 76.3%.
Consider `Cc1cc(C2CCCCC2)nc2ccc(Oc3c(Cl)cc(-n4nc(N)c(=O)[nH]c4=O)cc3Cl)cc12` [Compound 134, 6-amino-2-(3,5-dichloro-4-((2-cyclohexyl-4-methylquinolin-6-yl)oxy)phenyl)-1,2,4-triazine-3,5(2H,4H)-dione], for which, at THR-α, the pEC50 is 6.37 and the Emax was found to be 38.4%. At THR-β, the pEC50 was 6.92, the Selectivity worked out at 4.2 and the Emax worked out at 92.3%.

Values taken from EP4458820A1 (Shanghai Institute of Materia Medica, Chinese Academy of …, priority 2021, dated 2023).
